Results taken from US10005767B2, “Compositions and methods for inhibition of the JAK pathway” (Rigel Pharmaceuticals, Inc., priority 2009, dated 2018).

System: human primary T-cells, IL-2 stimulated proliferation (JAK-1 and JAK-3 dependent; reported as JAK3 activity)
Test: Human primary T-cell proliferation stimulated by IL-2 (Example 3)
Assay type: cell-based
Settings: Homo sapiens, T-cell, tested under conditions described in Example 3 (IL-2 stimulated human primary T-cell proliferation); read-out: ability to inhibit JAK3 activity, IC50 range (Table V)
Method in brief: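 Peripheral-blood human T-cells pre-activated via TCR/CD28, IL-2-starved overnight, then cultured 72 h at 37 °C with compound in Yssel's medium containing IL-2 (80 U/mL in cell suspension). Proliferation read as viable-cell ATP by CellTiter-Glo luminescence; reduction versus control taken as JAK pathway inhibition.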

SMILES	IC50 [nM]
Cc1cnc(Nc2ccc(C(=O)NC3CCC3)c(C(F)(F)F)c2)nc1Nc1ccc2oc(=O)[nH]c2c1 [Compound I-218, N-cyclobutyl-4-(5-methyl-4-(2-oxo-2,3-dihydrobenzo[d]oxazol-5-ylamino)pyrimidin-2-ylamino)-2-(trifluoromethyl)benzamide]	< 500
Cc1cnc(Nc2ccc(C(=O)Nc3ccccc3)c(C(F)(F)F)c2)nc1Nc1ccc2oc(=O)[nH]c2c1 [Compound I-219, 4-(5-methyl-4-(2-oxo-2,3-dihydrobenzo[d]oxazol-5-ylamino)pyrimidin-2-ylamino)-N-phenyl-2-(trifluoromethyl)benzamide]	< 500
COc1cc(Nc2ncc(C)c(Nc3ccc4oc(=O)[nH]c4c3)n2)ccc1C(=O)NC1CC1 [Compound I-220, N-cyclopropyl-2-methoxy-4-(5-methyl-4-(2-oxo-2,3-dihydrobenzo[d]oxazol-5-ylamino)pyrimidin-2-ylamino)benzamide]	< 500
COc1cc(Nc2ncc(C)c(Nc3ccc4oc(=O)[nH]c4c3)n2)ccc1C(=O)Nc1ccccc1 [Compound I-221, 2-methoxy-4-(5-methyl-4-(2-oxo-2,3-dihydrobenzo[d]oxazol-5-ylamino)pyrimidin-2-ylamino)-N-phenylbenzamide]	< 500
Cc1cnc(Nc2ccc(C(=O)O)c(C(F)(F)F)c2)nc1Nc1ccc2oc(=O)[nH]c2c1 [Compound I-222, 4-(5-methyl-4-(2-oxo-2,3-dihydrobenzo[d]oxazol-5-ylamino)pyrimidin-2-ylamino)-2-(trifluoromethyl)benzoic acid]	500 to 5000
Cc1cnc(Nc2ccc(C(=O)NC3CC3)c(C(F)(F)F)c2)nc1Nc1ccc2oc(=O)[nH]c2c1 [Compound I-223, N-cyclopropyl-4-(5-methyl-4-(2-oxo-2,3-dihydrobenzo[d]oxazol-5-ylamino)pyrimidin-2-ylamino)-2-(trifluoromethyl)benzamide]	< 500
Cc1cnc(Nc2cc(OCC3CC3)cc(C(F)(F)F)c2)nc1Nc1ccc2oc(=O)[nH]c2c1 [Compound I-225, 5-(2-(3-(cyclopropylmethoxy)-5-(trifluoromethyl)phenylamino)-5-methylpyrimidin-4-ylamino)benzo[d]oxazol-2(3H)-one]	500 to 5000
Cc1cnc(Nc2cc(OC3CCC3)cc(C(F)(F)F)c2)nc1Nc1ccc2oc(=O)[nH]c2c1 [Compound I-226, 5-(2-(3-cyclobutoxy-5-(trifluoromethyl)phenylamino)-5-methylpyrimidin-4-ylamino)benzo[d]oxazol-2(3H)-one]	500 to 5000
Cc1cnc(Nc2cc(OCC3CCC3)cc(C(F)(F)F)c2)nc1Nc1ccc2oc(=O)[nH]c2c1 [Compound I-227, 5-(2-(3-(cyclobutylmethoxy)-5-(trifluoromethyl)phenylamino)-5-methylpyrimidin-4-ylamino)benzo[d]oxazol-2(3H)-one]	500 to 5000
COc1cc(Nc2ncc(C)c(Nc3ccc4oc(=O)[nH]c4c3)n2)cc(C(C)=O)c1 [Compound I-229, 5-(2-(3-acetyl-5-methoxyphenylamino)-5-methylpyrimidin-4-ylamino)benzo[d]oxazol-2(3H)-one]	< 500
Cc1cnc(Nc2cc(Cl)c(F)c(C(F)(F)F)c2)nc1Nc1ccc2oc(=O)[nH]c2c1 [Compound I-230, 5-(2-(3-chloro-4-fluoro-5-(trifluoromethyl)phenylamino)-5-methylpyrimidin-4-ylamino)benzo[d]oxazol-2(3H)-one]	500 to 5000
COc1cc(Nc2ncc(C)c(Nc3ccc4oc(=O)[nH]c4c3)n2)cc(C(C)NC(C)C)c1 (stereo not drawn) [Compound I-231, 5-(2-(3-(1-(isopropylamino)ethyl)-5-methoxyphenylamino)-5-methylpyrimidin-4-ylamino)benzo[d]oxazol-2(3H)-one]	< 500
CCCNC(C)c1cc(Nc2ncc(C)c(Nc3ccc4oc(=O)[nH]c4c3)n2)cc(OC)c1 (stereo not drawn) [Compound I-232, 5-(2-(3-methoxy-5-(1-(propylamino)ethyl)phenylamino)-5-methylpyrimidin-4-ylamino)benzo[d]oxazol-2(3H)-one]	< 500
COc1cc(Nc2ncc(C)c(Nc3ccc4oc(=O)[nH]c4c3)n2)cc(C(C)NC2CC2)c1 (stereo not drawn) [Compound I-233, 5-(2-(3-(1-(cyclopropylamino)ethyl)-5-methoxyphenylamino)-5-methylpyrimidin-4-ylamino)benzo[d]oxazol-2(3H)-one]	< 500
COc1cc(Nc2ncc(C)c(Nc3ccc4oc(=O)[nH]c4c3)n2)cc(C(C)N2CCCC2)c1 (stereo not drawn) [Compound I-234, 5-(2-(3-methoxy-5-(1-(pyrrolidin-1-yl)ethyl)phenylamino)-5-methylpyrimidin-4-ylamino)benzo[d]oxazol-2(3H)-one]	< 500
COc1cc(Nc2ncc(C)c(Nc3ccc4oc(=O)[nH]c4c3)n2)cc(C(C)N2CCC2)c1 (stereo not drawn) [Compound I-235, 5-(2-(3-(1-(azetidin-1-yl)ethyl)-5-methoxyphenylamino)-5-methylpyrimidin-4-ylamino)benzo[d]oxazol-2(3H)-one]	< 500
CNC(C)c1cc(Nc2ncc(C)c(Nc3ccc4oc(=O)[nH]c4c3)n2)cc(OC)c1 (stereo not drawn) [Compound I-236, 5-(2-(3-methoxy-5-(1-(methylamino)ethyl)phenylamino)-5-methylpyrimidin-4-ylamino)benzo[d]oxazol-2(3H)-one]	< 500
Cc1cc(Nc2ncc(C)c(Nc3ccc4oc(=O)[nH]c4c3)n2)cc(C(F)F)c1 [Compound I-237, 5-(2-(3-(difluoromethyl)-5-methylphenylamino)-5-methylpyrimidin-4-ylamino)benzo[d]oxazol-2(3H)-one]	< 500
Cc1cc(CF)cc(Nc2ncc(C)c(Nc3ccc4oc(=O)[nH]c4c3)n2)c1 [Compound I-238, 5-(2-(3-(fluoromethyl)-5-methylphenylamino)-5-methylpyrimidin-4-ylamino)benzo[d]oxazol-2(3H)-one]	< 500
Cc1ccc(Nc2ncc(C)c(Nc3ccc4oc(=O)[nH]c4c3)n2)cc1S(C)(=O)=O [Compound I-239, 5-(5-methyl-2-(4-methyl-3-(methylsulfonyl)phenylamino)pyrimidin-4-ylamino)benzo[d]oxazol-2(3H)-one]	< 500
Cc1cnc(Nc2cc(F)cc(N3CCOCC3)c2)nc1Nc1ccc2oc(=O)[nH]c2c1 [Compound I-240, 5-(2-(3-fluoro-5-morpholinophenylamino)-5-methylpyrimidin-4-ylamino)benzo[d]oxazol-2(3H)-one]	< 500
Cc1cnc(Nc2cc(F)cc(N3CCN(C)CC3)c2)nc1Nc1ccc2oc(=O)[nH]c2c1 [Compound I-241, 5-(2-(3-fluoro-5-(4-methylpiperazin-1-yl)phenylamino)-5-methylpyrimidin-4-ylamino)benzo[d]oxazol-2(3H)-one]	< 500

Same assay, conditions: tested under conditions described in Example 3 (IL-2 stimulated human primary T-cell proliferation); read-out: ability to inhibit JAK3 activity, IC50 range (Table V)

SMILES	IC50 [nM]
Cc1cnc(Nc2cc(OCC(C)C)cc(C(F)(F)F)c2)nc1Nc1ccc2oc(=O)[nH]c2c1 [Compound I-224, -(2-(3-isobutoxy-5-(trifluoromethyl)phenylamino)-5-methylpyrimidin-4-ylamino)benzo[d]oxazol-2(3H)-one]	500 to 5000
COc1cc(Nc2ncc(C)c(Nc3ccc4oc(=O)[nH]c4c3)n2)cc(C(F)(F)F)c1 [Compound I-228, 5-(2-(3-deuteratedmethoxy-5-(trifluoromethyl)phenylamino)-5-methylpyrimidin-4-ylamino)benzo[d]oxazol-2(3H)-one]	< 500
